These results are taken from patent US20190008957A1, “COMBINATION THERAPIES INCLUDING INHIBITORS OF THE EXTRACELLULAR DOMAIN OF E-CADHERIN” (The Research Foundation for The State of New York, priority 2012, published 2019).

Assay [1] concerns lysosome and ubiquitin-proteasome pathways. The assay can be described thus: Lysosome/proteasome inhibitor rescue of anti-sEcad mAb-induced apoptosis and HER1-4 expression. The assay is classed as cell-based. The procedure: Cellular apoptosis was quantitatively determined using the Cell Death Apoptosis Detection ELISA Plus kit (Boehringer Mannheim), which is based on the detection of DNA-histone complexes in the form of mono- and oligo-nucleosomes, according to the manufacturer's instructions. Briefly, cells were treated in the presence or absence of various concentrations of DECMA-1 or rat IgG1 for 24 to 48 h. Cells were harvested by trypsinization, counted and lysates were subjected to the ELISA. In vitro and in vivo apoptosis was further analyzed by in situ detection of fragmented DNA, using the DeadEnd Fluorometric TUNEL System (Promega), the ApopTag Peroxidase In situ Apoptosis Detection Kit (Millipore) and the human Apoptosis Array Kit (ARY009, R & D), according to the manufacturer's instructions. The ApopTag kit was performed on deparaffinized 5 μm-thick sections treated with proteinase K (20 μg/ml) at RT. For cell counting, the cells were trypsinized and counted on a haemocytometer. For tumor BrdU analyses, tissues were stained using an anti-BrdU (ab2284, abcam) antibody, as previously described (27). The proliferation of cells was monitored by a cell proliferation ELISA 5-bromo-2′-deoxyuridine (BrdU) (colorimetric) kit (Roche, Stockholm, Sweden), according to the manufacturers protocol.
Human MCF-7 and BT474 parental cells were purchased from the American Type Culture Collection (ATCC), and cultured according to ATCC recommendations. BT474-Herceptin resistant cells were a kind gift of Dr. Kute (Wake Forest University, Winston-Salem, N.C.) and grown in 10% FBS RPMI-1640 medium (ATCC). Anti-sEcad ectodomain-specific antibodies include DECMA-1 (Sigma), HECD-1 (Calbiochem), SHE78-7 (Calbiochem) and H108 (Santa Cruz Biotechnology). The IAP antibody sampler kit was purchased from Cell Signaling. ALLN proteasome and chloroquine lysosome inhibitors were obtained from Sigma.

The subject of another assay is HER1, HER2, IGF-1R. The assay can be described thus: Western blot of receptor phosphorylation in skin and oropharyngeal SCC cell lines. The format is cell-based. To be noted: PAM212 cells. A general note: In western blotting, separated proteins are transferred to a membrane and probed.
Assay [2] has as its system MCF-7, SKBR3 and MDA-MB-231 breast cancer cell lines. The assay can be described thus: BrdU proliferation in breast cancer cell lines. The format is cell-based, human. As to conditions: for basal and sEcad-induced BrdU incorporation: breast cancer cells, Canertinib 1 μM, Lapatinib 5 μM, Gefitinib 5 μM. The procedure: (§1) For BrdU staining, cells were incubated with 10 μM BrdU for 2 h prior to fixation and processed for immunofluorescence microscopy as previously described (Brouxhon et al., Cancer Res. 67:7654-64, 2007). For BrdU analyses, cells were counted from 6 low-power fields (×100) per section. BrdU incorporation was also analyzed by a cell proliferation ELISA 5-bromo-2′-deoxyuridine (BrdU) (colorimetric) kit (Roche, Stockholm, Sweden), according to the manufacturer's instructions. Migration and invasion of cells were measured using 8.0 μm pore BD BioCoat Control Insert 24-well plates (no. 354578) and Matrigel Invasion Chamber 24-well Plates (no. 354480), respectively (BD Bioscience). Cells were collected, washed, and 2×10^5 cells were plated in 0.4% FBS medium in the top chamber, with 0-20 μg/mL of rhEcad/Fc in the bottom chamber. After 22 h, cells on the top were removed using a cotton swab. Migrated or invaded cells on the lower surface were fixed with methanol, stained with 0.5% crystal violet, examined by bright field microscopy and photographed. Migration or invasion was quantitated by counting migrated or invaded cells in at least ten random high-power fields per insert and expressed as averages. Results are presented as fold change of the number of migrated/invaded cells to the untreated controls in triplicate experiments.
(In general: Dividing cells build labelled thymidine or BrdU into new DNA.)

The subject of assay [3] is oropharyngeal FADU and skin SCC (PAM212, CC4A, SCC13 and SCC12b) cell lines. The assay can be described thus: Proliferation in oropharyngeal and skin SCC cell lines. The format is cell-based. To be noted: PAM212 skin SCC cells; HER inhibitors. On the procedure: as §1
Assay [4] relates to skin (PAM212, CC4A, SCC12b, SCC13) and oropharyngeal (FADU) cells. Description: Transwell migration of SCC cells. As to conditions: PAM212 skin SCC cells; HER inhibitors. The assay is classed as cell-based. The procedure: as §1
The test system of assay [5] is skin (SCC12b, SCC13, PAM212 and CC4A) and the head & neck FADU cell line. Description: Matrigel invasion of SCC cells. The assay is classed as cell-based. As to conditions: for sEcad-induced invasion: PAM212 skin SCC cells, HER inhibitors.
Assay [6] deals with MEK1/2, ERK1/2, PI3K, Akt, mTOR, p70S6K, 4EBP1. Description: Western blot of downstream MAPK-PI3K/Akt/mTOR signaling in SCC cell lines. The assay is classed as cell-based. As to conditions: PAM212 cells.
Description: (§2) After brief sonication, lysates were cleared by centrifugation at 4° C. […] After transfer to nitrocellulose membrane and blocking with 1% BSA, samples were probed with primary antibodies. Western blot images were captured using HP Scanjet G4050 and analyzed relative to G3PDH or actin using NIH Scion Image.
(§3) Antibodies against total HER1 and HER 4 and phosphorylated HER1-4, pPI3K, pAkt, pmTOR, p4E-BP1, pRaptor and pp70S6K obtained from Cell Signaling Technologies. Monoclonal antibodies to HER3 and HER4 were obtained from Thermo Scientific. Polyclonal antibody to the extracellular domain of E-cadherin and monoclonal antibody to α-actin were obtained from Santa Cruz Biotechnology. Monoclonal antibody to the extracellular domain of E-cadherin (DECMA-1) and to His Tag were obtained from Sigma and Abcam, respectively. Monoclonal antibody to G3PDH, ubiquitin and rat IgG1 were obtained from Ambion, Zymed and Southern Biotechnology, respectively.
For assay [7], the system named is MDA-MB-231 and MCF-7 breast cancer cells. The assay can be described thus: Matrigel invasion of breast cancer cells. The format is cell-based, human. The procedure:
as §1, with “After 22 h, cells on the top were removed using a cotton swab.” left out

For assay [8], the system named is breast (MCF-7, SKBR3) cells. The assay can be described thus: Transwell migration of breast cancer cells. The assay is classed as cell-based, human. The procedure: as §1, with “After 22 h, cells on the top were removed using a cotton swab.” left out
The test system of a further assay is HER1-4. The assay can be described thus: Western blot of HER phosphorylation in breast cancer cells. The assay is classed as cell-based, human. To be noted: MCF-7 cells, equimolar concentrations, compared to sEcad alone. An excerpt: The association of sEcad with these RTK was also confirmed by in vitro studies. Specifically, in cell culture systems, extracts from sEcad (rhEcad/Fc:His tagged) treated E-cadherin positive MCF-7 and E-cadherin negative SKBR3 and MDA-MB-231 breast cancer cells were immunoprecipitated with HER1-4-specific antibodies and analyzed by western blotting with a His-tagged-specific antibody. Here, we detected HER1-4-sEcad, HER1-2-sEcad and HER1-sEcad interactions in MCF, SKBR3 and MDA-MB-231 breast cancer cells, respectively. […] Because ligand binding to the HER family of receptors induces the formation of homo- and heterodimers, resulting in phosphorylation on specific tyrosine residues within the cytoplasmic domain (Yarden and Siliwkowski, Nature Reviews. 2:127-137, 2001), we next used western blot assays to examine whether sEcad promotes HER phosphorylation and downstream signaling.
Immunoprecipitation assays were carried out by harvesting tissues or cells with immunoprecipitation lysis buffer (20 mM Tris-HCl, pH 7.5; 137 mM NaCl; 100 mM NaF; 10% glycerol (vol/vol); 1% (vol/vol) Nonidet P-40; 1 mM PMSF and protease inhibitor cocktail (Sigma)). After brief sonication, lysates were cleared by centrifugation at 4° C. […] Western blot images were captured using HP Scanjet G4050 and analyzed relative to G3PDH or actin using NIH Scion Image. […]

Where [9] appears, read: MCF-7 cells, 24 h, equimolar concentrations.

Where a SMILES comes first, the peptide text is derived from it. [ ]: non-standard residue; d: D form. Nle = CCCC[C@H](N)C(=O)O

Description for HER1, HER2, IGF-1R: as §2, §3

For the molecule `CCCC[C@@H](C=O)NC(=O)[C@H](CC(C)C)NC(=O)[C@H](CC(C)C)NC(C)=O` [ALLN] (Ac-Leu-Leu-[Nle]-aldehyde), in [1], the “HER1-4 expression in anti-sEcad mAb treated cells in presence of inhibitor” value is given as “rescue of HER1-4 expression” and the “anti-sEcad mAb-induced apoptosis in presence of inhibitor” value was “inhibited”.
As to `C=CC(=O)Nc1cc2c(Nc3ccc(F)c(Cl)c3)ncnc2cc1OCCCN1CCOCC1` [Canertinib], in the assay with HER1, HER2, IGF-1R, the “sEcad-induced HER1 phosphorylation” value is “completely abrogated” and the “sEcad-induced HER2 phosphorylation (pHER2)” value is “completely abrogated”. In the assay with HER1, HER2, IGF-1R (in the presence of sEcad, compared to corresponding controls), the phospho-IGF-1R levels entry is “did not alter”. In addition, the “basal and sEcad-induced BrdU incorporation” value in assay [2] was “significantly reduced both basal and sEcad-induced BrdU incorporation”. Moreover, in [3], the sEcad-induced proliferation entry is “effectively inhibited sEcad-induced proliferation, migration and invasion”. The sEcad-induced migration entry in assay [4] is “effectively inhibited sEcad-induced proliferation, migration and invasion”. Further, in assay [5], the sEcad-induced invasion result was “effectively inhibited sEcad-induced proliferation, migration and invasion”.
Take `CCN(CC)CCCC(C)Nc1ccnc2cc(Cl)ccc12` (stereo not shown) [Chloroquine]: in [1], the “HER1-4 expression in anti-sEcad mAb treated cells in presence of inhibitor” value is given as “rescued HER1-4 membrane expression” and the “anti-sEcad mAb-induced apoptosis in presence of inhibitor” value is listed as “prevented anti-sEcad mAb-induced apoptosis at low doses”.
On to `CNC(=O)[C@H](Cc1c[nH]c2ccccc12)NC(=O)[C@@H](CC(=O)NO)CC(C)C` [GM6001, Ilomastat], for which the sEcad-stimulated invasion entry in assay [5] (PAM212 cells treated with 20 μg/mL rmEcad/Fc) is given as “completely blocked”.
With `COc1cc2ncnc(Nc3ccc(F)c(Cl)c3)c2cc1OCCCN1CCOCC1` [Gefitinib], in assay [6], the “sEcad-induced phosphorylation of 4EBP1” value is “only minimal effects”; the “sEcad-induced phosphorylation of ERK1/2, Akt and p70S6K” value is on record as “decreased”; the “sEcad-induced phosphorylation of PI3K” value is on record as “decreased”. Also, the “basal and sEcad-induced BrdU incorporation” value in assay [2] is “significantly reduced both basal and sEcad-induced BrdU incorporation”. In [3], the sEcad-induced proliferation result is “effectively inhibited sEcad-induced proliferation, migration and invasion”. The sEcad-induced migration result in [4] was “effectively inhibited sEcad-induced proliferation, migration and invasion”. The “basal and sEcad-induced invasion” value in assay [7] (MDA-MB-231 cell line, compared to untreated controls) is listed as “significantly reduced”. Also, the sEcad-induced invasion result in assay [5] is “effectively inhibited sEcad-induced proliferation, migration and invasion”.
With `FC(F)(F)c1ccc(/C=C/c2nc(COc3ccc(CCCCn4ccnn4)cc3)co2)cc1` [Mubritinib], in assay [8] (breast cancer cells (MCF-7)), the “basal and rhEcad/Fc-mediated migration” value is “only blocked sECad-induced MCF-7 migration”.
In the case of “rhEGF: Recombinant human EGF (Enzo Life Sciences) (NSDSECPLSHDGYCLHDGVCMYIEALDKYACNCVVGYIGERCQYRDLKWWELR)”, the “HER1 and ERK1/2 phosphorylation” value in the assay on HER1-4 was “more potent effects on HER1 and ERK1/2 phosphorylation”. For the same molecule, the proliferation result in [2] (setting [9]) is “significantly increased proliferation, migration and invasion”. The migration result in [8] (setting [9]) was “significantly increased proliferation, migration and invasion”. In addition, the invasion entry in assay [7] (setting [9]) was “significantly increased proliferation, migration and invasion”.
